Experiment [1] is described as follows: LC-MS quantification of anchorene in Arabidopsis tissues. The settings on record: 12-day-old seedlings incubated 6 hours with 20 μM; compared to control and OH-APO10′. As for the experimental part: About 30 mg (30-40 mg) of freeze-dried and ground Arabidopsis seedlings tissues were extracted using 1 mL of acetonitrile with anti-oxidant [0.1% butylated hydroxytoluene (BHT)] for 15 min in an ultrasonic bath (Branson® 5510EDTH, 25° C., 15 min), followed by centrifugation for 8 min at 13000 rpm at 4° C. The collected supernatant was dried using a concentrator (Labconco RapidVap® System). The extract was derivatized (SCHEME 3) with 50 μL of derivatization solution containing 5 mg/mL derivatization reagent (N^2,N^2,N^4,N^4-tetraethyl-6-hydrazineyl-1,3,5-triazine-2,4-diamine) (Chemspace) and 1% formic acid in methanol at 37° C. for 15 min. Then the sample solution was diluted to 150 μL with 1% formic acid in methanol and filtered by using 0.22 μm filter before LC-MS analysis.
The quantitative analysis of derivative anchorene were carried out on HPLC-Q-Trap MS/MS. Chromatographic separation was achieved on an Acquity UPLC CSH C18 column (50×2.1 mm; 1.7 μm; Waters) using a mobile phase consisting of water: acetonitrile (95:5, v:v, A) and pure acetonitrile (B), both containing 0.1% formic acid. A gradient was applied, starting with 10% B and increasing to 40% B over 5 min. Then 15% B was increased
within 10 min followed by an increase of 45% B over 2 min. And then 100% B was maintained for 10 min. To equilibrate the column before the next run, the mobile phase was adjusted back to 10% B in 1 min and this concentration was maintained for 8 min prior to the next sample injection. A flow rate of 0.15 mL/min and a column temperature of 40° C. were maintained throughout the run. The eluent of the column was introduced to the mass spectrometer using turbo spray ion source in positive mode. The injection volume was 10 μL. The conditions of the mass spectrometer were set as following: curtain gas: 30; ion spray voltage: 5 kV; temperature: 400° C.; ion source gas 1: 30; ion source gas 2: 40; declustering potential, 55; entrance potential: 10; collision energy: 25; collision cell exit potential: 10. […]

Experiment [2] deals with Arabidopsis seedlings (anchor roots). The experiment in a line: ANR formation under OH-Apo10′ and OH-Apo12′ treatment. The conditions noted are these: 10 μM, counted at 10 DAG. It counts as in vivo. The source says: FIGS. 21A-D show a diapocarotenoid precursor (OH-Apo12′) is converted into anchorene in plants, according to one or more embodiments of the present disclosure. […] (B) is a histogram showing quantification of achorene in mock, OH-Apo10′, and OH-Apo12′ fed Arabidopsis seedlings. (C) is a histogram showing ANR emergence in mock, OH-Apo10′, and OH-Apo12′ fed seedlings. […] For B and C, two-tailed Student's t-test, **P<0.01, *** P<0.001; in B, n=4; in C data are presented as mean ±SD from 3 independent replicates; in B, 12-day-old seedlings were incubated with indicated chemicals for 6 hours and 20 μM OH-Apol10′ and OH-Apo12′ were used; and C, 10 μM OH-Apol ′ and OH-Apo12′ were used and the ANR No./plant was counted at 10 DAG. For the quantification of ANR formation under OH-Apo10′ and OH-Apo12′ treatment conditions, the sterilized Arabidopsis seeds were exposed to light for 24 hours first, and then plated to 1/2 MS plates with indicated chemicals; the plates were kept under darkness (22° C.) for another two days and then exposed to long day light conditions for another 7 days to count the ANR emergence.

As to `CC1=C(/C=C/C(C)=C/C=C/C(C)=C/C=C/C=C(\C)C=O)C(C)(C)CC(O)C1` (stereo not drawn) [OH-APO12′, all-trans-3-OH-β12′-carotenal], in experiment [1], the “anchorene content of fed seedlings” value is on record as “much more anchorene”. Moreover, the “anchor roots formed compared to mock (ANR No./plant)” value in experiment [2] is given as “formed more anchor routes”.
In the case of `CC(C=CC=O)=CC=CC=C(C)C=CC=C(C)C=CC1=C(C)CC(O)CC1(C)C` (stereo not drawn) [OH-APO10′, reference compound], the “anchor roots formed compared to mock (ANR No./plant)” value in experiment [2] is recorded as “not”.
